The source made the active and inactive calls.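 How the source made its calls: active means lipid-stain IC50 at or below a set limit, with nuclear-stain toxicity IC50 at least five times higher; inactive means the rest.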
How the values were obtained:
DAPI = test: triacylglycerol accumulation inhibitor potency, dose response, cell-based, panel, Nile Red and DAPI fluorescence, H9c2 (AID 651630); conditions: H9c2 cells, DAPI nuclear fluorescence (cytotoxicity counter-readout), oleic acid;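 further: cells exposed to compound overnight before fixation and staining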
TAG = test: as above; conditions: H9c2 cells, Nile Red TAG fluorescence, oleic acid

SMILES	IC50 cytotoxicity (DAPI nuclear signal decrease) (DAPI; mean of runs)	IC50 cytotoxicity (DAPI nuclear signal decrease) (DAPI; run 1) [µM]	IC50 cytotoxicity (DAPI nuclear signal decrease) (DAPI; run 2) [µM]	IC50 (TAG; mean of runs)	IC50 (TAG; run 1) [µM]	IC50 (TAG; run 2) [µM]
CCCCCCSc1ccc([C@H]2N[C@@](CC(C)C)(C(=O)OC)[C@H]3C(=O)N(C)C(=O)[C@@H]23)cc1OC	> 25 µM (inactive)	> 25	> 25	> 25 µM (inactive)	> 25	> 25
O=C(NCc1nnnn1-c1ccc(F)cc1)c1ccc([N+](=O)[O-])o1	11.8 µM (inactive)	11.8	11.9	18.9 µM (inactive)	21.7	16
COc1ccc(-c2cc(CNc3nc(NC(C)C)nc4cc(-c5ccccc5)sc34)on2)cc1	> 25 µM (inactive)	> 25	> 25	6.39 µM	6.47	6.31
COc1ccc(C[C@H]2CN3C(=NC[C@@H]3Cc3ccc(O)cc3)N2CCNC(=O)c2ccc(C)c(Br)c2)cc1		24	> 25	> 25 µM (inactive)	> 25	> 25
COCCNC(=O)c1cc2c(-c3ccc(Cl)cc3)nn(C)c2s1	> 25 µM (inactive)	> 25	> 25	> 25 µM (inactive)	> 25	> 25
C#CCN(C[C@H]1[C@H](OC(=O)NCCCCCC)[C@H](OC(=O)NCCCCCC)C[C@@H](C(=O)OC)[C@H]1C(=O)OC)S(=O)(=O)c1ccc(C)cc1		> 25	> 25	4.91 µM	4.31	5.5
O=C(CSc1nc(Nc2ccccc2)nc(N2CCOCC2)n1)N1CCCC1		22.1	> 25	12.2 µM	11.7	12.7
CCOc1c(Cl)cc(/C=C/C(=O)N(CC)CC(=O)NCc2cccs2)cc1OC	> 25 µM (inactive)	> 25	> 25	17 µM (inactive)	19.2	14.8
CCOCCC(=O)Nc1ccc2c(c1)c(=O)n(C)n2-c1ccc2ccccc2c1	> 25 µM (inactive)	> 25	> 25	> 25 µM (inactive)	> 25	> 25
CCOc1ccc(OCC)c(NC(=O)CN(c2ccc(C)cc2)S(=O)(=O)c2c(C)noc2C)c1	> 25 µM (inactive)	> 25	> 25	19.6 µM (inactive)	17.1	22
CNC(=S)NN=C(C)CCCC(C)=NNC(=S)NC		11.3	> 25	> 25 µM (inactive)	> 25	> 25
COc1ccc(-c2nc3ccc(Cl)cn3c2NC2CCCCC2)cc1SC1CCCCC1		> 25	> 25	3.44 µM	2.41	4.47
CC(=O)c1ccc(Oc2cc(C)nc(-n3nc(C)cc3C)n2)cc1	> 25 µM (inactive)	> 25	> 25	11.5 µM	10.4	12.5
C[C@H](O)[C@@H]1CN2CCc3c([nH]c4ccc(-c5ccc6c(c5)OCO6)cc34)[C@@H]2C[C@@H]1N(C)C(=O)Nc1ccc(F)cc1	> 25 µM (inactive)	> 25	> 25	11 µM	7.28	14.7
COc1ccccc1-c1cc(NC=O)c2ncc(-c3cccc(C(=O)N(C)C)c3)n2c1	> 25 µM (inactive)	> 25	> 25	15.3 µM (inactive)	17.5	13.1
COc1cccc(-c2cc(C(=O)Nc3ccc(N(C)C(C)=O)cc3)c3cc(Br)ccc3n2)c1	> 25 µM (inactive)	> 25	> 25	12.3 µM	11.7	12.9
O=[N+]([O-])c1ccc(Nc2nc(N3CCOCC3)nc(N3CCOCC3)n2)cc1	> 25 µM (inactive)	> 25	> 25	21.4 µM (inactive)	24.2	18.6

SMILES	IC50 cytotoxicity (DAPI nuclear signal decrease) (DAPI; mean of runs)	IC50 cytotoxicity (DAPI nuclear signal decrease) (DAPI; run 1) [µM]	IC50 cytotoxicity (DAPI nuclear signal decrease) (DAPI; run 2) [µM]	IC50 (TAG; mean of runs)	IC50 (TAG; run 1) [µM]	IC50 (TAG; run 2) [µM]
COc1ccc(C(=O)Nc2sc3c(c2C(=O)NCc2ccco2)CCCC3)cc1OC	> 25 µM (inactive)	> 25	> 25	> 25 µM (inactive)	> 25	> 25
COC(=O)[C@@]1(Cc2ccc(OC)cc2)[C@@H]2C(=CC(=O)[C@H]2CC(=O)C(=O)N2CCCC2)CN1C(=O)c1ccccc1		21	> 25	> 25 µM (inactive)	> 25	> 25
Nc1ncnc2c1ncn2C1C=C(CO)C(O)C1O (stereo unspecified)	> 25 µM (inactive)	> 25	> 25	12.5 µM	11.4	13.7
OCCCn1c(C2CCCN2c2nc(-c3ccc(Cl)cc3)cs2)nc2cc(Cl)c(N3CCCCC3)cc21 (stereo unspecified)	> 25 µM (inactive)	> 25	> 25		24.6	> 25
O=C1c2ccccc2C(=O)c2c1cccc2N1CCN(C/C=C/c2ccccc2)CC1	> 25 µM (inactive)	> 25	> 25		23.1	> 25
Cc1cc(C)cc(-n2c3ccc(NC(=O)Cc4cccc5ccccc45)cc3c(=O)n2C)c1	> 25 µM (inactive)	> 25	> 25		21.7	> 25
CC(C)C[C@H]1CNC(=S)N1CC1CCCN1C[C@H](CC(C)C)N1C[C@H](CC(C)C)N(CC2CCCCCC2)C1=S (stereo partly specified)	> 25 µM (inactive)	> 25	> 25	> 25 µM (inactive)	> 25	> 25
CC1(C)CCCN(Cc2c(O)ccc3c(=O)c(-c4nc5ccccc5s4)c(N)oc23)C1	> 25 µM (inactive)	> 25	> 25	10 µM	10	10
CCOC(=O)[C@@H]1[C@H]2COc3ccc(Br)cc3[C@@H]2N2C(=O)N(c3ccc(C(F)(F)F)cc3)C(=O)[C@@]12C		> 25	> 25	3.24 µM	2.27	4.21
Cc1ccc(NC(=O)Cn2nnc(-c3ccccc3NC(=O)c3cccs3)n2)cc1	> 25 µM (inactive)	> 25	> 25	5.75 µM	7.48	4.02
CCOC(=O)c1cc(-c2ccncc2)nc2c1c(C)nn2-c1ccccn1	> 25 µM (inactive)	> 25	> 25		14.1	> 25
Nc1ccc2ccccc2c1N=Nc1ccccc1	> 25 µM (inactive)	> 25	> 25	9.51 µM	8.88	10.1
O=C(CC1C[C@H](C(=O)N2CCOCC2)[C@@]2(CCC3CCCC3)c3[nH]c4ccccc4c3CCN2C1=O)NCC12CC3CC(CC(C3)C1)C2 (stereo partly specified)	> 25 µM (inactive)	> 25	> 25	> 25 µM (inactive)	> 25	> 25
CCCCC(=NCCc1c(C)[nH]c2ccc(OC)cc12)C1=C(O)CC(c2ccccc2)CC1=O (stereo unspecified)	> 25 µM (inactive)	> 25	> 25		16.1	> 25
c1ccc(N=NC2=NN(c3ccccc3)CS2)cc1		> 25	> 25	3.69 µM	3.57	3.8
CN(C)CC(O)c1ccc(C=Cc2ccc(Cl)cc2)cc1 (stereo unspecified)	> 25 µM (inactive)	> 25	> 25	13.8 µM	11.6	16.1
COc1cc(CNC(=O)Nc2nc(C(N)Cc3ccc(C(F)(F)F)cc3)cs2)cc(OC)c1OC (stereo unspecified)	> 25 µM (inactive)	> 25	> 25	8.38 µM	8.1	8.66
